Among the data in patent US20260132126A1, “IMIDAZOLE DERIVATIVES” (SANWA KAGAKU KENKYUSHO CO., LTD., priority 2022, published 2026) are Emax and EC50 values, retold here.

In this experiment the target is T1, human α1A adrenergic receptor (Homo sapiens, UniProt P35348).
T1 construct: host or cells: GeneBLAzer ADRA1A-NFAT-bla CHO-K1 cells
T1 sequence (P35348 1-466): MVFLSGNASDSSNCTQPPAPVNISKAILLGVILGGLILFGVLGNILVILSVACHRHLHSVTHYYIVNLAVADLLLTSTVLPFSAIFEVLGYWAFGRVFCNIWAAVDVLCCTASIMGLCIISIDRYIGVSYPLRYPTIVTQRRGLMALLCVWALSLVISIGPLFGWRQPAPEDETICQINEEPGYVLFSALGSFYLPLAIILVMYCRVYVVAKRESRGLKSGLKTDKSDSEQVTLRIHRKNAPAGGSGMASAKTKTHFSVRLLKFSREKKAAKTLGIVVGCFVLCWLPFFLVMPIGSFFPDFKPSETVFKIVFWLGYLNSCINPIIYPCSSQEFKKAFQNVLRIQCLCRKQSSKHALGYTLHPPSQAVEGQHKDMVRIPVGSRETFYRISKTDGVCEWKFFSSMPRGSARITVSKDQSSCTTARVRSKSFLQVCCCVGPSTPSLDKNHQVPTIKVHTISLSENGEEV
As to the kind of experiment: Ca2+ mobilization assay in human α1A adrenergic receptor-expressing cells. It counts as cell-based. Also on record: Emax: dose or concentration left out as unconfirmed. The note with it: for Emax at 10 µM: % activation at 10 μmol/L test compound, 100 μmol/L norepinephrine = 100%, well without test compound = 0%; for EC50: CHO-K1 cells expressing human α1A adrenergic receptor, Fluo-4 fluorescence, concentration giving 50% response of Emax, 4-parameter logistic regression. The protocol:
CHO-K1 cells that highly express a human α1A adrenergic receptor (GeneBLAzer™ ADRA1A-NFAT-bla CHO-K1 Cells) were purchased from Thermo Fisher Scientific, Inc., and cultured according to the instructions.
The cultured human α1A adrenergic receptor-expressing cells were washed with D-PBS, then replaced with a loading buffer (2 μmol/L Fluo-4/AM, 1× PowerLoad, 2.5 mmol/L Probenecid-containing DMEM (high-glucose)) and incubated at 37° C. for 60 minutes in a 5% CO2 incubator. The cells were detached using 0.05% trypsin-EDTA solution, and suspended in an assay buffer ([…], 0.054 mol/L KCl, 1.8 mmol/L CaCl2), 1 mmol/L MgSO4, 0.11 mol/L glucose, 0.01 mol/L NaH2PO4·2H2O, […], pH 7.3) to be 500,000 cells/mL.
Test compounds were dissolved in dimethylsulfoxide, and diluted with an assay buffer containing 0.3% BSA. The final concentrations of the test compounds were set to fall within the range of 0.1 nmol/L to 10 μmol/L. As a reference compound, norepinephrine was set to have a final concentration within the range of 0.01 nmol/L to 100 μmol/L.
On a 384-well clear bottom black plate coated with poly-D-lysine (Corning Inc.), the above-described cell-suspended solution was dispersed in 40 μL each (20,000 cells/well) and allowed to stand for 10 minutes. The plate was transferred to a fluorescent imaging plate reader (FDSS7000, Hamamatsu Photonics K.K.), and measurements were started. After 1 minute from the start of the measurements, 20 μL of the test compound solutions or norepinephrine solution (total amount: 60 μL/well) was added to each well of the plate (final concentration: 0.1% BSA, 0.1% dimethylsulfoxide), and the temporal change in fluorescence intensity of Fluo-4 was further measured for 5 minutes (Ex 480 nm/Em 540 nm).
The normalized values (% activation) were used for subsequent analyses.
Emax values and EC50 values were calculated by creating a concentration-response curve of the test compounds using a 4-parameter logistic regression with XLFit, Emax value being defined as % activation of test compound at the concentration of 10 μmol/L, and EC50 value being defined as the concentration in which 50% response of the Emax values is shown.

Take `Cc1ncsc1-c1cscc1NCc1c[nH]cn1` [Example 18, N-((1H-imidazol-4-yl)methyl)-4-(4-methylthiazol-5-yl)thiophen-3-amine]: the Emax at 10 µM stood at 88% and the EC50 came to 5.3 nM.

`COc1ccncc1-c1cscc1NCc1c[nH]cn1` [Example 4, N-((1H-imidazol-4-yl)methyl)-4-(4-methoxypyridin-3-yl)thiophen-3-amine] came in with an Emax at 10 µM of 93% and an EC50 of 0.6 nM.

Compound `c1ccc(-c2cscc2NCc2c[nH]cn2)nc1` [Example 30, N-((1H-imidazol-4-yl)methyl)-4-(pyridin-2-yl)thiophen-3-amine] registered an Emax at 10 µM of 97% and an EC50 of 0.7 nM.

As to `Cc1ccncc1-c1ccccc1OCc1c[nH]cn1` [Example 72], the Emax was determined as 106% and a half-maximal response (EC50) required 7.4 nM.

In turn, `c1nc(CNc2cscc2-c2cscn2)c[nH]1` [Example 14, N-((1H-imidazol-4-yl)methyl)-4-(thiazol-4-yl)thiophen-3-amine] gave an Emax at 10 µM of 88% and an EC50 of 2.2 nM.

As for `c1ncc(-c2cscc2NCc2c[nH]cn2)cn1` [Example 42], the Emax at 10 µM worked out at 97% and the midpoint of the response, the EC50, lay at 7.3 nM.

Take `Cc1ncncc1-c1ccccc1NCc1c[nH]cn1` [Example 19, N-((1H-imidazol-4-yl)methyl)-2-(4-methylpyrimidin-5-yl)aniline]: the Emax at 10 µM amounted to 102% and the EC50 came to 3.1 nM.

With `c1ccc(-c2cnccn2)c(OCc2c[nH]cn2)c1` [Example 68], the Emax is 100% and a half-maximal response (EC50) required 2.3 nM.

In turn, `c1cncc(-c2cscc2NCc2c[nH]cn2)c1` [Example 3, N-((1H-imidazol-4-yl)methyl)-4-(pyridin-3-yl)thiophen-3-amine] displayed an Emax at 10 µM of 92% and an EC50 of 0.3 nM.

`c1ccc(-c2nccs2)c(OCc2c[nH]cn2)c1` [Example 70] had an Emax of 93% and an EC50 of 2.4 nM.

Compound `Cc1ccc(-c2c[nH]nc2C)c(OCc2c[nH]cn2)c1` [Example 59] returned an Emax at 10 µM of 101% and an EC50 of 0.4 nM.

Consider `Cc1c(F)cncc1-c1ccccc1OCc1c[nH]cn1` [Example 60], for which the Emax at 10 µM was determined as 90% and it took 3.2 nM to reach a half-maximal effect (EC50).

Consider `COc1ncccc1-c1cscc1NCc1c[nH]cn1` [Example 43], for which the Emax at 10 µM was found to be 90% and the midpoint of the response, the EC50, lay at 0.6 nM.

`c1ccc(-c2cnccc2C2CC2)c(OCc2c[nH]cn2)c1` [Example 73]: the Emax is 89% and the EC50 is 0.7 nM.

On to `Cc1ncncc1-c1ccc(F)cc1NCc1c[nH]cn1` [Example 25, N-((1H-imidazol-4-yl)methyl)-5-fluoro-2-(4-methylpyrimidin-5-yl)aniline], for which the Emax at 10 µM came to 100% and the EC50 stood at 1.7 nM.

`COc1ncncc1-c1cscc1NCc1c[nH]cn1` [Example 23, N-((1H-imidazol-4-yl)methyl)-4-(4-methoxypyrimidin-5-yl)thiophen-3-amine] showed an Emax at 10 µM of 95% and an EC50 of 0.1 nM.

Take `Fc1cncc(-c2ccccc2OCc2c[nH]cn2)c1` [Example 51]: the Emax at 10 µM worked out at 102% and a half-maximal response (EC50) required 1.8 nM.

In turn, `COc1c(F)cncc1-c1ccccc1OCc1c[nH]cn1` [Example 74] came in with an Emax of 96% and an EC50 of 0.5 nM.

In turn, `c1ccc(-c2ccsc2)c(OCc2c[nH]cn2)c1` [Example 44, 4-((2-(Thiophen-3-yl)phenoxy)methyl)-1H-imidazole] returned an Emax at 10 µM of 108% and an EC50 of 2.2 nM.

The compound `COc1ncncc1-c1ccccc1OCc1c[nH]cn1` [Example 75] had an Emax of 95% and an EC50 of 0.2 nM.

The compound `CC(Nc1ccccc1-c1cscn1)c1c[nH]cn1` (single isomer, unassigned; (+)) [Example 40, (+)-N-(1-(1H-Imidazol-4-yl)ethyl)-2-(thiazol-4-yl)aniline] registered an Emax at 10 µM of 111% and an EC50 of 0.6 nM.
